Source: PubChem BioAssay (NCI)
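Where inhibition never reached the appropriate level, the endpoint shown equals the highest concentration tested. Otherwise, values were interpolated linearly from a five-concentration, 48-hour dose response in 96-well plates. GI50 = concentration required for 50% inhibition of growth. Definition used: TGI = concentration required for complete inhibition of growth.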

Tests used:
Assay in all cases: inhibition of tumour cell growth, NCI panel, 48 h
PC-3 prostate = system: PC-3 prostate
HS 578T breast = system: HS 578T breast
EKVX NSCLC = system: EKVX NSCLC
SN12C renal = system: SN12C renal
T-47D breast = system: T-47D breast
LOX IMVI melanoma = system: LOX IMVI melanoma
HCT-116 colon = system: HCT-116 colon
A498 renal = system: A498 renal
KM12 colon = system: KM12 colon
MDA-MB-435 = system: MDA-MB-435
SW-620 colon = system: SW-620 colon
K-562 leukemia = system: K-562 leukemia
UO-31 renal = system: UO-31 renal
NCI/ADR-RES ovarian = system: NCI/ADR-RES ovarian
SF-268 CNS = system: SF-268 CNS
HCC-2998 colon = system: HCC-2998 colon
CCRF-CEM leukemia = system: CCRF-CEM leukemia
NCI-H522 lung = system: NCI-H522 lung
MDA-MB-231 breast = system: MDA-MB-231 breast
UACC-257 melanoma = system: UACC-257 melanoma
MCF7 breast = system: MCF7 breast
SK-MEL-28 melanoma = system: SK-MEL-28 melanoma
OVCAR-5 ovarian = system: OVCAR-5 ovarian
SF-539 CNS = system: SF-539 CNS
A549 NSCLC = system: A549 NSCLC
SK-MEL-2 melanoma = system: SK-MEL-2 melanoma
SK-MEL-5 melanoma = system: SK-MEL-5 melanoma
OVCAR-3 ovarian = system: OVCAR-3 ovarian
SNB-19 CNS = system: SNB-19 CNS
ACHN renal = system: ACHN renal
HOP-92 NSCLC = system: HOP-92 NSCLC
RXF 393 renal = system: RXF 393 renal
HT29 colon = system: HT29 colon
SR leukemia = system: SR leukemia
M14 melanoma = system: M14 melanoma
RPMI-8226 leukemia = system: RPMI-8226 leukemia
SNB-75 CNS = system: SNB-75 CNS
TK-10 renal = system: TK-10 renal
BT-549 breast = system: BT-549 breast
OVCAR-4 ovarian = system: OVCAR-4 ovarian
SK-OV-3 ovarian = system: SK-OV-3 ovarian
HCT-15 colon = system: HCT-15 colon
MOLT-4 leukemia = system: MOLT-4 leukemia
CAKI-1 renal = system: CAKI-1 renal
COLO 205 colon = system: COLO 205 colon
NCI-H226 lung = system: NCI-H226 lung
786-0 renal = system: 786-0 renal
DU-145 prostate = system: DU-145 prostate
HOP-62 NSCLC = system: HOP-62 NSCLC
UACC-62 melanoma = system: UACC-62 melanoma
NCI-H460 lung = system: NCI-H460 lung
NCI-H23 lung = system: NCI-H23 lung
U251 CNS = system: U251 CNS
HL-60(TB) leukemia = system: HL-60(TB) leukemia
SF-295 CNS = system: SF-295 CNS
OVCAR-8 ovarian = system: OVCAR-8 ovarian
MALME-3M melanoma = system: MALME-3M melanoma
IGROV1 ovarian = system: IGROV1 ovarian

For `Cc1cc(O)cc(C)c1/C=C/c1cncc(C(N)=O)c1`, the GI50 (PC-3 prostate) was 5.09 µM, the TGI (PC-3 prostate) was greater than 25 µM and the GI50 (HS 578T breast) was 1.72 µM. It also gave a TGI (HS 578T breast) of 11.2 µM, a GI50 (EKVX NSCLC) of 7.93 µM and a TGI (EKVX NSCLC) greater than 25 µM. It also gave a GI50 (SN12C renal) of 2.92 µM, a TGI (SN12C renal) greater than 25 µM and a GI50 (T-47D breast) of 1.8 µM. The TGI (T-47D breast) was greater than 25 µM, the GI50 (LOX IMVI melanoma) was 1.94 µM and the TGI (LOX IMVI melanoma) was greater than 25 µM. The GI50 (HCT-116 colon) was 1.34 µM, the TGI (HCT-116 colon) was greater than 25 µM and the GI50 (A498 renal) was 1.65 µM. It also gave a TGI (A498 renal) of 17.4 µM, a GI50 (KM12 colon) of 1.25 µM and a TGI (KM12 colon) greater than 25 µM. It also gave a GI50 (MDA-MB-435) of 0.538 µM, a TGI (MDA-MB-435) of 1.77 µM and a GI50 (SW-620 colon) of 1.4 µM. For the same compound, the TGI (SW-620 colon) was greater than 25 µM, the GI50 (K-562 leukemia) was 1.06 µM and the TGI (K-562 leukemia) was greater than 25 µM. The GI50 (UO-31 renal) was 5.58 µM, the TGI (UO-31 renal) was greater than 25 µM and the GI50 (NCI/ADR-RES ovarian) was 1.07 µM. The TGI (NCI/ADR-RES ovarian) was greater than 10.9 µM, the GI50 (SF-268 CNS) was 3.99 µM and the TGI (SF-268 CNS) was greater than 25 µM. It also gave a GI50 (HCC-2998 colon) of 21.9 µM, a TGI (HCC-2998 colon) greater than 25 µM and a GI50 (CCRF-CEM leukemia) of 2.88 µM. For the same compound, the TGI (CCRF-CEM leukemia) was greater than 25 µM, the GI50 (NCI-H522 lung) was 0.779 µM and the TGI (NCI-H522 lung) was 3.84 µM. It also gave a GI50 (MDA-MB-231 breast) of 2.15 µM, a TGI (MDA-MB-231 breast) greater than 25 µM and a GI50 (UACC-257 melanoma) of 3.37 µM. The TGI (UACC-257 melanoma) was greater than 25 µM, the GI50 (MCF7 breast) was 1.2 µM and the TGI (MCF7 breast) was greater than 25 µM. For the same compound, the GI50 (SK-MEL-28 melanoma) was 2.3 µM, the TGI (SK-MEL-28 melanoma) was greater than 25 µM and the GI50 (OVCAR-5 ovarian) was 12.1 µM. The TGI (OVCAR-5 ovarian) was greater than 25 µM, the GI50 (SF-539 CNS) was 1.87 µM and the TGI (SF-539 CNS) was 16.5 µM. The GI50 (A549 NSCLC) was 3.48 µM, the TGI (A549 NSCLC) was greater than 25 µM and the GI50 (SK-MEL-2 melanoma) was 1.25 µM. For the same compound, the TGI (SK-MEL-2 melanoma) was 14 µM, the GI50 (SK-MEL-5 melanoma) was 1.11 µM and the TGI (SK-MEL-5 melanoma) was greater than 25 µM. For the same compound, the GI50 (OVCAR-3 ovarian) was 0.885 µM, the TGI (OVCAR-3 ovarian) was 3.93 µM and the GI50 (SNB-19 CNS) was 4.34 µM. For the same compound, the TGI (SNB-19 CNS) was greater than 25 µM, the GI50 (ACHN renal) was 8.43 µM and the TGI (ACHN renal) was greater than 25 µM. The GI50 (HOP-92 NSCLC) was 1.5 µM, the TGI (HOP-92 NSCLC) was greater than 14.7 µM and the GI50 (RXF 393 renal) was 2.36 µM. It also gave a TGI (RXF 393 renal) of 13 µM, a GI50 (HT29 colon) of 6.9 µM and a TGI (HT29 colon) greater than 23.4 µM. For the same compound, the GI50 (SR leukemia) was 1.06 µM, the TGI (SR leukemia) was greater than 25 µM and the GI50 (M14 melanoma) was 1.2 µM. It also gave a TGI (M14 melanoma) of 7.75 µM, a GI50 (RPMI-8226 leukemia) of 7.91 µM and a TGI (RPMI-8226 leukemia) greater than 25 µM. The GI50 (SNB-75 CNS) was 2.81 µM, the TGI (SNB-75 CNS) was greater than 18.2 µM and the GI50 (TK-10 renal) was 5.99 µM. The TGI (TK-10 renal) was greater than 25 µM, the GI50 (BT-549 breast) was 4.51 µM and the TGI (BT-549 breast) was greater than 25 µM. For the same compound, the GI50 (OVCAR-4 ovarian) was 14.5 µM, the TGI (OVCAR-4 ovarian) was greater than 25 µM and the GI50 (SK-OV-3 ovarian) was 3.66 µM. The TGI (SK-OV-3 ovarian) was greater than 17.6 µM, the GI50 (HCT-15 colon) was 1.54 µM and the TGI (HCT-15 colon) was greater than 25 µM. It also gave a GI50 (MOLT-4 leukemia) of 3.27 µM, a TGI (MOLT-4 leukemia) greater than 25 µM and a GI50 (CAKI-1 renal) of 4.24 µM. It also gave a TGI (CAKI-1 renal) greater than 25 µM, a GI50 (COLO 205 colon) of 16.5 µM and a TGI (COLO 205 colon) greater than 25 µM. It also gave a GI50 (NCI-H226 lung) greater than 15.6 µM, a TGI (NCI-H226 lung) greater than 25 µM and a GI50 (786-0 renal) of 8.6 µM. For the same compound, the TGI (786-0 renal) was greater than 25 µM, the GI50 (DU-145 prostate) was 5.15 µM and the TGI (DU-145 prostate) was greater than 25 µM. For the same compound, the GI50 (HOP-62 NSCLC) was 2.8 µM, the TGI (HOP-62 NSCLC) was greater than 25 µM and the GI50 (UACC-62 melanoma) was 1.36 µM. The TGI (UACC-62 melanoma) was 23.1 µM, the GI50 (NCI-H460 lung) was 1.84 µM and the TGI (NCI-H460 lung) was greater than 25 µM. The GI50 (NCI-H23 lung) was 7.24 µM, the TGI (NCI-H23 lung) was greater than 25 µM and the GI50 (U251 CNS) was 1.49 µM. It also gave a TGI (U251 CNS) greater than 25 µM, a GI50 (HL-60(TB) leukemia) of 2.29 µM and a TGI (HL-60(TB) leukemia) greater than 12.9 µM. For the same compound, the GI50 (SF-295 CNS) was 2.9 µM, the TGI (SF-295 CNS) was greater than 25 µM and the GI50 (OVCAR-8 ovarian) was 4.15 µM. For the same compound, the TGI (OVCAR-8 ovarian) was greater than 25 µM, the GI50 (MALME-3M melanoma) was 1.64 µM and the TGI (MALME-3M melanoma) was 24.4 µM. For the same compound, the GI50 (IGROV1 ovarian) was 2.18 µM and the TGI (IGROV1 ovarian) was greater than 25 µM.
